The term inhibition denotes the relative decrease from the control value, in per cent. High values mean a strong effect, low ones a weak effect.

These results are taken from US20120302748A1, “TREATMENT OR PROPHYLAXIS OF PROLIFERATIVE CONDITIONS” (THE UNIVERSITY COURT OF THE UNIVERSITY OF DUNDEE, priority 2009, published 2012).

Data set [1] addresses T1, CYP1B1 (Homo sapiens, UniProt Q16678).
T1 sequence (Q16678 1-543): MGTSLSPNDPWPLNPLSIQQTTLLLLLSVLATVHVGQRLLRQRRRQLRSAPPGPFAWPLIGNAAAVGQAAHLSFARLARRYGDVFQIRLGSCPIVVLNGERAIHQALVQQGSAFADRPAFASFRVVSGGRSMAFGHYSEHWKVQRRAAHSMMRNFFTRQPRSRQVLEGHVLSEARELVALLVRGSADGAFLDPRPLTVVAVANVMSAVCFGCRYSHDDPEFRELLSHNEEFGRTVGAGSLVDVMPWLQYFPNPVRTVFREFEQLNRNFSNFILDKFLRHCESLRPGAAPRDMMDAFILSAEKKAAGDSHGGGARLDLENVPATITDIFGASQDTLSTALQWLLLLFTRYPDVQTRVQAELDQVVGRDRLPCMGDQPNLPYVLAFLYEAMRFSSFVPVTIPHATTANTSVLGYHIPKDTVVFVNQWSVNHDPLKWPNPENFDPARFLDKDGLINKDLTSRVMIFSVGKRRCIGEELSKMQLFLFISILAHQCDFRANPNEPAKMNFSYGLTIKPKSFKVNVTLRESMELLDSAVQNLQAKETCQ
Briefly: CYP1B1 substrate prediction model (Gaussian Kernel weighted k-NN). To be noted: predicted versus actual.

For data set [2], the target named is T1, CYP1B1. Kind of data set: in vitro.
Data set [3] concerns the target T1, CYP1B1. Kind of data set: Supersomal CYP1B1 fragmentation of coumarin model prodrugs (kinetic fluorimetry). It is filed as biochemical. More on the design: purchased BD Gentest, Oxford, UK. To be noted: for Specific fragmentation activity CYP1B1: 10 μmol dm^−3 prodrug, 10 pmol enzyme, pH 7.4, 37° C., mean ± standard deviation of three.
Protocol: (§1) Supersomal™ enzyme metabolism was started by adding a stock solution of prodrug dissolved in DMSO to give a final concentration of 10 μmol dm^−3 prodrug and 0.5% DMSO. HLM screening used 60 microlitre microsomes, 100 μmol dm^−3 NADPH, in 10 mmol dm^−3 potassium phosphate buffer at pH 7.4 and 37° C., in 1.5 ml total reaction volume.
(§2) Therefore, enzymatic hydroxylation of the hetero-aromatic trigger and resultant linker fragmentation can be monitored in real time by release of the coumarin anion by kinetic fluorimetry.
(§3) Release of the coumarin anion indicative of linker fragmentation was monitored using a 1 cm path length fluorescence cell in a Cary Eclipse kinetic flourimeter with excitation and emission slits set at 5 nm. Coumarin anion release from compounds of the invention was detected at the excitation wavelength λex=350 nm and the emission wavelength λem=450 nm. Change in fluorescence intensity was quantified against a linear calibration plot of fluorescence intensity versus coumarin concentration (0 to 3.5 μmol dm^−3) in 10 mmol dm^−3 potassium phosphate buffer at pH 7.4 using the same instrument settings as for enzyme metabolism.
Data set [4] has as its system human liver microsomes (HLM). Briefly: Pooled human liver microsome (HLM) fragmentation of coumarin model prodrugs. The class given is in vitro ADME. Particulars: 60 μl HLM in 1.5 ml, pH 7.4, 37° C.; mean ± standard deviation of three. Background: Liver microsomes are a subcellular fraction often used to study metabolism.
Protocol: as §1, §2, §3
The next data set has as its target T2, CYP1A2 (Homo sapiens, UniProt P05177).
T2 construct: purchased BD Gentest, Oxford, UK
T2 sequence (P05177 2-516 limits assumed): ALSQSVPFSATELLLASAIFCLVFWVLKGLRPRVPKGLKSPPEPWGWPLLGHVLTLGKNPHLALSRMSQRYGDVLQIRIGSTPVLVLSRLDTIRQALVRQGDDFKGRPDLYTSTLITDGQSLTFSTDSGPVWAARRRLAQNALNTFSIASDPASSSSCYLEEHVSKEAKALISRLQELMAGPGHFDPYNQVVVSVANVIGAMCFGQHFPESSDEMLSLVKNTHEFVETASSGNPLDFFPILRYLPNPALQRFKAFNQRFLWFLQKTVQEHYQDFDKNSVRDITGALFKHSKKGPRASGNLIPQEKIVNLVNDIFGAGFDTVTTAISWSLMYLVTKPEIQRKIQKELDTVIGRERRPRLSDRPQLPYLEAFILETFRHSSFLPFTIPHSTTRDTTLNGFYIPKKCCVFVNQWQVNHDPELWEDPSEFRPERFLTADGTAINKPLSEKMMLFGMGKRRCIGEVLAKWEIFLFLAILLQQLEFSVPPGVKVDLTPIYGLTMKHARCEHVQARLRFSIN
Kind of data set: Supersomal CYP1A2 fragmentation of coumarin model prodrugs (kinetic fluorimetry). It is filed as biochemical. Particulars: 10 μmol dm^−3 prodrug, 10 pmol enzyme, pH 7.4, 37° C.; mean ± standard deviation of three.

Protocol for CYP1A2: as §1, §2, §3

As to `CCOc1ccc2nc3ccc(=O)cc-3oc2c1` [ethoxyresorufin, 7-ethoxyresorufin], at CYP1B1 [1], the “% CYP1B1 substrate inhibition accuracy” value is 95%. This molecule displayed an inhibition at 0.5 mmol dm^−3 on CYP1B1 [2] of 92.13 ± 0.56%.

Turning to `Cc1cc(=O)oc2cc(OCc3cc4cc(Br)ccc4o3)ccc12` [VG035-04, 7-((5-bromobenzofuran-2-yl)methoxy)-4-methyl-2H-chromen-2-one], at CYP1B1 [3], the “Specific fragmentation activity CYP1B1” value is given as 8.85 ± 0.28 pmol coumarin min^−1 pmol cytochrome P450^−1.

As for `Nc1ccc(S(=O)(=O)Nc2ccnn2-c2ccccc2)cc1` [sulfaphenazole], the “% CYP1B1 substrate inhibition accuracy” value at CYP1B1 [1] is on record as 68%. Besides, the inhibition at 0.5 mmol dm^−3 against CYP1B1 [2] came out at 2.89 ± 0.15%.

Take `Cc1cc(=O)oc2cc(OCc3cc4cc(F)ccc4o3)ccc12` [VG015-05, 7-((5-fluorobenzofuran-2-yl)methoxy)-4-methyl-2H-chromen-2-one]: the “Specific fragmentation activity CYP1B1” value at CYP1B1 [3] is recorded as 3.16 ± 0.28 pmol coumarin min^−1 pmol cytochrome P450^−1.

Turning to `C=C[C@H]1C[N@@]2CC[C@H]1C[C@@H]2[C@@H](O)c1ccnc2ccc(OC)cc12` [quinidine], the “% CYP1B1 substrate inhibition accuracy” value at CYP1B1 [1] is recorded as 64%. Besides, on CYP1B1 [2], the inhibition at 0.5 mmol dm^−3 is 1.63 ± 0.34%.

Consider `Oc1ccc(C=Cc2cc(O)cc(O)c2)cc1` [resveratrol], for which, at CYP1B1 [1], the “% CYP1B1 substrate inhibition accuracy” value is reported as 95%. This molecule also returned an inhibition at 0.5 mmol dm^−3 against CYP1B1 [2] of 72.34 ± 0.56%.

As for `Cc1cc(=O)oc2cc(OCc3cc4ccccc4o3)ccc12` [SU010A, 7-(benzofuran-2-ylmethoxy)-4-methyl-2H-chromen-2-one], the “Specific fragmentation activity HLM” value in data set [4] is reported as 22.8 ± 0.69 pmol coumarin min^−1 pmol cytochrome P450^−1. Also, the “Specific fragmentation activity CYP1B1” value on CYP1B1 [3] is listed as 5.19 ± 0.15 pmol coumarin min^−1 pmol cytochrome P450^−1.

Consider `COc1ccc2oc(COC(=O)Nc3ccc4c(C)cc(=O)oc4c3)cc2c1` [VG032-05, (5-methoxybenzofuran-2-yl)methyl 4-methyl-2-oxo-2H-chromen-7-ylcarbamate], for which the “Specific fragmentation activity HLM” value in data set [4] is 3.21 ± 0.25 pmol coumarin min^−1 pmol cytochrome P450^−1. In addition, the “Specific fragmentation activity CYP1B1” value on CYP1B1 [3] is on record as 1.53±0.09 pmol coumarin min^−1 pmol cytochrome P450^−1. For the same molecule, the “CYP1B1 specific fragmentation activity, fold lower than VG027-05” value at CYP1B1 [3] (carbamate linker versus ether linker) was approximately 6 fold. The “Specific fragmentation activity CYP1A2” value at CYP1A2 is listed as “no release”.

Consider `COc1cccc2cc(COc3ccc4c(C)cc(=O)oc4c3)oc12` [VG029-05, 7-((7-methoxybenzofuran-2-yl)methoxy)-4-methyl-2H-chromen-2-one], for which the “Specific fragmentation activity CYP1B1” value on CYP1B1 [3] was 6.45 ± 1.15 pmol coumarin min^−1 pmol cytochrome P450^−1.

Take `Cc1cc(=O)oc2cc(NC(=O)OCc3cc4ccccc4o3)ccc12` [SU018-03, benzofuran-2-ylmethyl 4-methyl-2-oxo-2H-chromen-7-ylcarbamate]: in data set [4], the “Specific fragmentation activity HLM” value is “no release”. For the same molecule, on CYP1B1 [3], the “Specific fragmentation activity CYP1B1” value is recorded as “no release”. For the same molecule, the “Specific fragmentation activity CYP1A2” value at CYP1A2 is on record as “no release”.

In the case of `COc1cc(OC)c2oc(COC(=O)Nc3ccc4c(C)cc(=O)oc4c3)cc2c1` [VG041-05, (5,7-dimethoxybenzofuran-2-yl)methyl 4-methyl-2-oxo-2H-chromen-7-ylcarbamate], the “Specific fragmentation activity HLM” value in data set [4] was “no release”. In addition, on CYP1B1 [3], the “Specific fragmentation activity CYP1B1” value is reported as “no release”. Besides, the “Specific fragmentation activity CYP1A2” value on CYP1A2 is given as “no release”.

On to `Cc1cc(=O)oc2cc(OCc3cc4cc(Cl)ccc4o3)ccc12` [VG028-05, 7-((5-chlorobenzofuran-2-yl)methoxy)-4-methyl-2H-chromen-2-one], for which the “Specific fragmentation activity CYP1B1” value at CYP1B1 [3] is reported as 6.67 ± 0.01 pmol coumarin min^−1 pmol cytochrome P450^−1.

`COc1ccc2oc(COc3ccc4c(C)cc(=O)oc4c3)cc2c1` [VG027-05, 7-((5-methoxybenzofuran-2-yl)methoxy)-4-methyl-2H-chromen-2-one]: the “Specific fragmentation activity HLM” value in data set [4] is listed as 8.98 ± 0.49 pmol coumarin min^−1 pmol cytochrome P450^−1. Moreover, the “Specific fragmentation activity CYP1B1” value at CYP1B1 [3] is listed as 11.83 ± 0.15 pmol coumarin min^−1 pmol cytochrome P450^−1.
